From ChEMBL document CHEMBL1144471, “Structure-activity relationships of 2,N(6),5'-substituted adenosine derivatives with potent activity at the A2B adenosine receptor” (J Med Chem, 2007)

Assays:
[1] = target: T1, Adenosine receptor A3 (Homo sapiens) (UniProt P0DMS8); test: Maximum efficacy at human recombinant adenosine A3 receptor expressed in CHO cells assessed as inhibition of cAMP production at 10 uM relative to NECA; format: functional, cell-based
T1 sequence (whole entry): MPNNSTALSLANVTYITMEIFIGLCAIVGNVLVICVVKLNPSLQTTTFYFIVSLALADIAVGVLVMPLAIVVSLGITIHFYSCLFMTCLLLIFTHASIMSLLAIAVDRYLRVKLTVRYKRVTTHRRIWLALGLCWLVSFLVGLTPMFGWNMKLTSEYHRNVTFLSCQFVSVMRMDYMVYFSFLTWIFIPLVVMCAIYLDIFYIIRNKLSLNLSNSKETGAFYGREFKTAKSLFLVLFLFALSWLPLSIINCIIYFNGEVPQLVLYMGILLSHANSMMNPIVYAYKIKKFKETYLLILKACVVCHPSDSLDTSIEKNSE

[2] = target: T2, Adenosine receptor A2b (Homo sapiens) (UniProt P29275); test: Agonist activity at human adenosine A2B receptor expressed in CHO cells assessed as stimulation of cAMP production at 10 uM; format: functional, cell-based
T2 sequence (whole entry): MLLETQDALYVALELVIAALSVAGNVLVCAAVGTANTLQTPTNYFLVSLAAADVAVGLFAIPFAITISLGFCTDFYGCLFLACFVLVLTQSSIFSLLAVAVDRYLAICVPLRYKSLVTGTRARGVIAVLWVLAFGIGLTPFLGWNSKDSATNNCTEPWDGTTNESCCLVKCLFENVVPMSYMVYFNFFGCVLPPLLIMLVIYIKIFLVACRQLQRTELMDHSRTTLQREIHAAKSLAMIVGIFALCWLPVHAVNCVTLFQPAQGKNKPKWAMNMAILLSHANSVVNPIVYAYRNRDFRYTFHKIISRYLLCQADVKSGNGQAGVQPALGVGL

Adenosine receptor A3 = target: T3, Adenosine receptor A3 (Homo sapiens, UniProt P0DMS8); test: Displacement of [125I]I-AB-MECA from human adenosine A3 receptor expressed in CHO cells; format: cell-based
T3 sequence (P0DMS8 whole entry): T1 sequence (whole entry)

Adenosine receptor A1 = target: T4, Adenosine receptor A1 (Homo sapiens, UniProt P30542); test: Displacement of […] from human adenosine A1 receptor expressed in CHO cells; format: cell-based
T4 sequence (P30542 whole entry): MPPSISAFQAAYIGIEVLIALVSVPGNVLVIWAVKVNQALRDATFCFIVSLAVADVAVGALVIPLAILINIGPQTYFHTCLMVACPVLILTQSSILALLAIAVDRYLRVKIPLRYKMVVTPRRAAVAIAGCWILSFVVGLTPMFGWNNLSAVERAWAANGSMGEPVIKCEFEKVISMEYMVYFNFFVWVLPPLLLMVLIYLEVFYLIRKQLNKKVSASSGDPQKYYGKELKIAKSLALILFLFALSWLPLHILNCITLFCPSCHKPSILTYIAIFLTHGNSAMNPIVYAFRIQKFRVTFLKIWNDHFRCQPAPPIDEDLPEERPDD

Adenosine receptor A2a = Adenosine receptor A2a (Homo sapiens, UniProt P29274); test: biochemical
Description: Displacement of [3H]CGS-21680 from human adenosine A2A receptor expressed in CHO cells

Adenosine receptor A2b = target: T5, Adenosine receptor A2b (Homo sapiens, UniProt P29275); test: Agonist activity at human adenosine A2B receptor expressed in CHO cells assessed as stimulation of cAMP production
T5 sequence (P29275 whole entry): T2 sequence (whole entry)

Sequence of Adenosine receptor A2a (P29274 whole entry): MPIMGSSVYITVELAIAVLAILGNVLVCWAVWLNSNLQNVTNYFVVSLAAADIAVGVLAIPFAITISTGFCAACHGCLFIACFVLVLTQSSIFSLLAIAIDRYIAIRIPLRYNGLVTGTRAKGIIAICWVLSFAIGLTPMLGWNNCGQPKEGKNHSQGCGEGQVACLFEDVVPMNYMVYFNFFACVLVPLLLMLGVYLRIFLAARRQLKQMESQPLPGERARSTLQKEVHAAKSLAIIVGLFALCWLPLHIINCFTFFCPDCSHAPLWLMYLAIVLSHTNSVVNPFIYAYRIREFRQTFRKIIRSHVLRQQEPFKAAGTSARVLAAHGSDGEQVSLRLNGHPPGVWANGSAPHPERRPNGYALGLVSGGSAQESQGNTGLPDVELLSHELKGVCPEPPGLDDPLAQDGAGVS

With `Nc1nc(OCCCCc2ccccc2)nc2c1ncn2[C@@H]1O[C@H](CO)[C@@H](O)[C@H]1O` the Efficacy [1] was 37%, the Activity [2] was 3% and the Ki (Adenosine receptor A3) was 352 nM. For the same compound, the Ki (Adenosine receptor A1) was 2060 nM and the Ki (Adenosine receptor A2a) was 519 nM.

In the case of `COc1ccc2[nH]cc(CCOc3nc(N)c4ncn([C@@H]5O[C@H](CO)[C@@H](O)[C@H]5O)c4n3)c2c1`, the EC50 (Adenosine receptor A2b) is reported as 1250 nM, the Efficacy [1] is reported as -3% and the Ki (Adenosine receptor A3) is reported as 360 nM. The Ki (Adenosine receptor A1) was 1820 nM and the Ki (Adenosine receptor A2a) was 1400 nM.

Compound `Nc1nc(OCCc2c[nH]c3ccc(I)cc23)nc2c1ncn2[C@@H]1O[C@H](CO)[C@@H](O)[C@H]1O` has an EC50 (Adenosine receptor A2b) of 1870 nM, an Efficacy [1] of -5% and a Ki (Adenosine receptor A3) of 110 nM. It also gave a Ki (Adenosine receptor A1) of 350 nM and a Ki (Adenosine receptor A2a) of 900 nM.

For `Nc1nc(OCCc2c[nH]c3c(Br)cccc23)nc2c1ncn2[C@@H]1O[C@H](CO)[C@@H](O)[C@H]1O`, the Efficacy [1] was -8%, the Activity [2] was 43% and the Ki (Adenosine receptor A3) was 142 nM. For the same compound, the Ki (Adenosine receptor A1) was 210 nM and the Ki (Adenosine receptor A2a) was 252 nM.

With `Nc1nc(OCCc2ccc3ccccc3c2)nc2c1ncn2[C@@H]1O[C@H](CO)[C@@H](O)[C@H]1O` the EC50 (Adenosine receptor A2b) was 1440 nM, the Efficacy [1] was 45% and the Ki (Adenosine receptor A3) was 130 nM. It also gave a Ki (Adenosine receptor A1) of 141 nM and a Ki (Adenosine receptor A2a) of 16.1 nM.

In the case of `CCOc1nc(N)c2ncn([C@@H]3O[C@H](CO)[C@@H](O)[C@H]3O)c2n1`, the Efficacy [1] is reported as 99%, the Activity [2] is reported as -1% and the Ki (Adenosine receptor A3) is reported as 568 nM. It also gave a Ki (Adenosine receptor A1) of 2640 nM and a Ki (Adenosine receptor A2a) of 360 nM.

`Nc1nc(OCCc2cc[nH]c2)nc2c1ncn2[C@@H]1O[C@H](CO)[C@@H](O)[C@H]1O` showed an EC50 (Adenosine receptor A2b) of 2580 nM, an Efficacy [1] of 75% and a Ki (Adenosine receptor A3) of 104 nM. It also gave a Ki (Adenosine receptor A1) of 218 nM and a Ki (Adenosine receptor A2a) of 95 nM.

`CCNC(=O)[C@H]1O[C@@H](n2cnc3c(NC(=N)N)ncnc32)[C@H](O)[C@@H]1O` gave an Efficacy [1] of 100%.

In the case of `Nc1nc(OCCc2c[nH]c3cc(Cl)ccc23)nc2c1ncn2[C@@H]1O[C@H](CO)[C@@H](O)[C@H]1O`, the EC50 (Adenosine receptor A2b) is reported as 216 nM, the Efficacy [1] is reported as 2% and the Ki (Adenosine receptor A2a) is reported as 29.3 nM.

For `Nc1nc(OCCCc2ccccc2)nc2c1ncn2[C@@H]1O[C@H](CO)[C@@H](O)[C@H]1O`, the Efficacy [1] was 42%, the Activity [2] was 29% and the Ki (Adenosine receptor A3) was 66 nM. For the same compound, the Ki (Adenosine receptor A1) was 960 nM and the Ki (Adenosine receptor A2a) was 500 nM.

In the case of `N=C(N)Nc1nc(OCCc2c[nH]c3ccccc23)nc2c1ncn2[C@@H]1O[C@H](CO)[C@@H](O)[C@H]1O`, the Efficacy [1] is reported as 58%, the Activity [2] is reported as 40% and the Ki (Adenosine receptor A3) is reported as 90 nM. For the same compound, the Ki (Adenosine receptor A1) was 73.6 nM and the Ki (Adenosine receptor A2a) was 277 nM.

`Nc1nc(OCCc2ccsc2)nc2c1ncn2[C@@H]1O[C@H](CO)[C@@H](O)[C@H]1O` showed an Efficacy [1] of 62%, an Activity [2] of 9% and a Ki (Adenosine receptor A3) of 101 nM. For the same compound, the Ki (Adenosine receptor A1) was 280 nM and the Ki (Adenosine receptor A2a) was 13.3 nM.

Compound `Nc1nc(OCCc2ccccc2F)nc2c1ncn2[C@@H]1O[C@H](CO)[C@@H](O)[C@H]1O` has an Efficacy [1] of 45%, an Activity [2] of 12% and a Ki (Adenosine receptor A3) of 77.8 nM. For the same compound, the Ki (Adenosine receptor A1) was 331 nM and the Ki (Adenosine receptor A2a) was 58.1 nM.

For `Nc1nc(OCCc2c[nH]c3ccccc23)nc2c1ncn2[C@@H]1O[C@H](CO)[C@@H](O)[C@H]1O`, the EC50 (Adenosine receptor A2b) was 299 nM, the Efficacy [1] was 17% and the Ki (Adenosine receptor A3) was 232 nM. The Ki (Adenosine receptor A1) was 148 nM and the Ki (Adenosine receptor A2a) was 45 nM.

Work on `Nc1nc(OCCc2ccc(F)cc2)nc2c1ncn2[C@@H]1O[C@H](CO)[C@@H](O)[C@H]1O` yielded an Efficacy [1] of 74%, an Activity [2] of 11% and a Ki (Adenosine receptor A3) of 112 nM. It also gave a Ki (Adenosine receptor A1) of 467 nM and a Ki (Adenosine receptor A2a) of 56.8 nM.

Work on `Nc1nc(OCCc2cc3ccccc3[nH]2)nc2c1ncn2[C@@H]1O[C@H](CO)[C@@H](O)[C@H]1O` yielded an Efficacy [1] of 37%, an Activity [2] of 49% and a Ki (Adenosine receptor A3) of 513 nM. The Ki (Adenosine receptor A1) was 197 nM and the Ki (Adenosine receptor A2a) was 373 nM.

Work on `Nc1nc(OCCc2c[nH]c3cccc(Br)c23)nc2c1ncn2[C@@H]1O[C@H](CO)[C@@H](O)[C@H]1O` yielded an Efficacy [1] of -5%, an Activity [2] of 16% and a Ki (Adenosine receptor A3) of 260 nM. The Ki (Adenosine receptor A1) was 443 nM and the Ki (Adenosine receptor A2a) was 39.7 nM.

In the case of `C[C@@H](CCOc1nc(N)c2ncn([C@@H]3O[C@H](CO)[C@@H](O)[C@H]3O)c2n1)c1ccccc1`, the Efficacy [1] is reported as 18%, the Activity [2] is reported as 13% and the Ki (Adenosine receptor A3) is reported as 312 nM. For the same compound, the Ki (Adenosine receptor A1) was 1560 nM and the Ki (Adenosine receptor A2a) was 413 nM.

In the case of `Nc1nc(OCCc2cccc(F)c2)nc2c1ncn2[C@@H]1O[C@H](CO)[C@@H](O)[C@H]1O`, the Efficacy [1] is reported as 50%, the Activity [2] is reported as 64% and the Ki (Adenosine receptor A3) is reported as 119 nM. It also gave a Ki (Adenosine receptor A1) of 312 nM and a Ki (Adenosine receptor A2a) of 69.3 nM.
